Literature values, collected in paper PMC5571359, “Screening the Medicines for Malaria Venture Pathogen Box across Multiple Pathogens Reclassifies Starting Points for Open-Source Drug Discovery” (Antimicrobial Agents and Chemotherapy, 2017).
Read-outs that look alike come from different tables or passages of the source.

How the values were obtained:
P. falciparum ABS = conditions: cited from earlier work; for EC50: ChEMBL Data; for IC50: read-out: Pf 3D7 Pbox IC50
HepG2 = conditions: cited from earlier work
[1] = TCMDC, read-out: TCMDC (ref 93) EX50
[2] = Pf 3D7, ref Pathogen Box supporting information
[3] = P. falciparum, read-out: TCMDC (ref 93) EX50
[4] = P. falciparum 3D7, ref PBox supporting information
[5] = read-out: HepG2 PBox CC50 µM, HepG2 cytotoxicity, ref PBox supporting information
[6] = P. falciparum, read-out: NITD (ref 94) EC50
[7] = ref Pbox supporting information
[8] = ref PBox supporting information

In the case of `CC(C)(C)c1cc(C(=O)N2CCN(c3nccnc3C#N)CC2)n(Cc2ccccc2)n1` [MMV023949], the EC50 (P. falciparum ABS; [1]) is listed as 760 nM and the IC50 (P. falciparum ABS; [2]) is listed as 600 nM.

In the case of `O=C(Nc1cccc(-c2ccc(NCCCN3CCCC3)nc2)c1)c1ccccc1` [MMV023953], the EC50 (P. falciparum ABS; [1]) is listed as 870 nM and the IC50 (P. falciparum ABS; [2]) is listed as 850 nM.

For `CS(=O)(=O)c1cccc(-c2cnc3[nH]cc(-c4ccc(CCC(=O)O)cc4)c3c2)c1` [MMV026020], the EC50 (P. falciparum ABS; [3]) is listed as 630 nM and the IC50 (P. falciparum ABS; [4]) is listed as 500 nM.

In the case of `OCc1ccc(-c2cncc(Nc3cccc(Cl)c3)c2)cc1` [MMV026468], the EC50 (P. falciparum ABS; [3]) is listed as 74 nM and the IC50 (P. falciparum ABS; [4]) is listed as 33.5 nM.

For `CC(C)(C)CN1C(=O)C(c2ccccc2)(c2ccccc2)N=C1N` [MMV026550], the EC50 (P. falciparum ABS; [3]) is given as 520 nM and the IC50 (P. falciparum ABS; [4]) is given as 800 nM.

For `COc1cc(C(F)(F)F)nc2ccc(C)c(N)c12` [MMV047015], the CC50 (HepG2; [5]) is given as > 100 µM.

For `N#Cc1ccc(-c2ccc(OCC(N)=O)cc2)cc1` [MMV053220], the CC50 (HepG2; [5]) is listed as > 100 µM.

In the case of `Cc1nn(Cc2ccccc2)c(Cl)c1C(=O)NC1CCCCCC1` [MMV063404], the CC50 (HepG2) is listed as > 100 µM.

In the case of `FC(F)(F)c1nnc2ccc(Cl)nn12` [MMV069458], the CC50 (HepG2; [5]) is listed as > 100 µM.

In the case of `O=C(Nc1cnc2ccccc2c1)c1cccc(-n2cnnn2)c1` [MMV084864], the EC50 (P. falciparum ABS; [6]) is listed as 170 nM and the IC50 (P. falciparum ABS; [4]) is listed as 540 nM.

In the case of `O=C(C(Cc1c[nH]c2ccccc12)NS(=O)(=O)c1ccc(Cl)cc1)N1CCCCC1` (stereo not drawn) [MMV085210], the EC50 (P. falciparum ABS; [6]) is listed as 720 nM and the IC50 (P. falciparum ABS; [4]) is listed as > 2000 nM.

In the case of `CCCNC(=O)N1CCC2(CC1)CC(=O)c1cc(C)ccc1O2` [MMV085230], the EC50 (P. falciparum ABS; [6]) is listed as 870 nM and the IC50 (P. falciparum ABS; [4]) is listed as 2060 nM.

For `CCOC(=O)NC(=O)c1ccsc1NC(=O)c1nc2ccccc2s1` [MMV090930], the CC50 (HepG2; [5]) is given as 47 µM.

For `O=C(Nc1nnc(-c2ccc(Cl)cc2)o1)c1cccc(C(F)(F)F)c1` [MMV102872], the CC50 (HepG2; [5]) is given as 9 µM.

In the case of `CCC(C)NC(=O)c1ccc(NC(=O)C2(c3ccccc3)CCCC2)cc1` (stereo not drawn) [MMV146306], the CC50 (HepG2; [5]) is given as > 100 µM.

In the case of `Cc1cc(Cl)ccc1NC(=O)CCc1ccc(S(=O)(=O)NCC(C)C)cc1` [MMV161996], the CC50 (HepG2; [5]) is listed as > 100 µM.

In the case of `COc1ccc(C2(C(=O)Nc3ccc(Br)cc3)CCCC2)cc1` [MMV200748], the CC50 (HepG2; [5]) is listed as > 100 µM.

In the case of `COc1ccc(OC(C)C(=O)Nc2ccc(Cl)cc2C)cc1` (stereo not drawn) [MMV202458], the CC50 (HepG2; [5]) is given as > 100 µM.

For `CN1CCN(c2nccc3[nH]c(-c4cccc(F)c4)cc23)CC1` [MMV393144], the IC50 (P. falciparum ABS; [4]) is listed as 1460 nM.

In the case of `Cc1cc(O)nc(-n2nc(C)cc2C)n1` [MMV393995], the CC50 (HepG2) is listed as 60.7 µM.

For `CCc1nc2ccc(C(=O)NCc3ccc4c(c3)OCO4)cn2c1N(C)Cc1cccs1` [MMV407539], the “HepG2 PBox CC20 μMc” value (HepG2; [7]) is listed as 18600 nM.

In the case of `COC(=O)c1c(NC(=O)c2c(F)c(F)c(F)c(F)c2F)sc2c1CCCCC2` [MMV461553], the CC50 (HepG2; [5]) is given as 7.5 µM.

For `CCC(Sc1nc2ccccc2o1)C(=O)Nc1nnc(C)s1` (stereo not drawn) [MMV611037], the CC50 (HepG2; [5]) is given as > 100 µM.

For `CN1CCC[C@@H]1CCO[C@](C)(c1ccccc1)c1ccc(Cl)cc1` [MMV637229, clemastine, reference compound], the “HepG2 PBox CC20 μMc” value (HepG2) is given as 9300 nM.

In the case of `Nc1ncc(-c2ccc(C(F)(F)F)nc2)cc1-c1ccc(C(F)(F)F)nc1` [MMV668727], the “HepG2 PBox CC20 μMc” value (HepG2; [7]) is listed as >80000 nM.

In the case of `CC(C)(C)c1ccc(N[C@@H]2CCCC[C@H]2NC(=O)c2ccco2)cc1` [MMV675969], the “HepG2 PBox CC20 μMc” value (HepG2; [7]) is given as 35900 nM.

In the case of `Clc1ccc(-n2cc(COc3ccnc4ccccc34)nn2)cc1` [MMV675994], the “HepG2 PBox CC20” value (HepG2; [8]) is listed as 13600 nM.

In the case of `COc1ccc(N(CCc2cccc(C)n2)C(C)=O)cc1` [MMV675995], the “HepG2 PBox CC20 μMc” value (HepG2; [7]) is given as >80000 nM.

For `COc1ccc(N(CCc2cccc(C)n2)C(=O)C2CCCCC2)cc1` [MMV675996], the “HepG2 PBox CC20 μMc” value (HepG2; [7]) is given as >80000 nM.

In the case of `COc1cc(NC(=O)Cc2nn(C)c(=O)c3ccccc23)ccc1Cl` [MMV676053], the “HepG2 PBox CC20” value (HepG2; [8]) is given as >80000 nM.

In the case of `CCCCc1ccc(NC(=O)Nc2ccc(O[C@H]3CCCC[C@@H]3N(C)c3ccccc3)c(F)c2)cc1` [MMV676063], the “HepG2 PBox CC20 μMc” value (HepG2; [7]) is given as 5800 nM.

For `CC(=O)N(CCN(C(=O)c1ccc(F)cc1)c1ccccc1)c1ccccc1` [MMV676064], the “HepG2 PBox CC20 μMc” value (HepG2; [7]) is given as 39000 nM.

For `Nc1ncnc2c1c(Cc1cccc3ccccc13)nn2CC1CCNCC1` [MMV676182], the “HepG2 PBox CC20” value (HepG2; [8]) is given as >80000 nM.

In the case of `CC(=O)Nc1ccc(NC(=O)c2cc(-c3cc(Cl)ccc3O)[nH]n2)cc1` [MMV676380], the EC50 (P. falciparum ABS; [3]) is given as 180 nM and the IC50 (P. falciparum ABS; [4]) is given as 350 nM.

In the case of `O=C(c1ccc(NCCO)cc1)C1C[C@H]1c1ccc(Cl)cc1` (stereo partly drawn) [MMV676877], the IC50 (P. falciparum ABS; [4]) is given as 660 nM.

In the case of `CCn1cnc2c(Nc3cc(F)cc(F)c3)nc(C#N)nc21` [MMV676881], the IC50 (P. falciparum ABS; [4]) is listed as 900 nM.

In the case of `CN1CCN(S(=O)(=O)c2ccc(-c3ccc4c(Nc5ccc6nn[nH]c6c5)ccnc4c3)cc2)CC1` [MMV687246], the IC50 (P. falciparum ABS; [4]) is listed as 420 nM.

In the case of `CCc1cc(=O)n(C)c(SC(C)C(=O)Nc2ccc(F)cc2)n1` (stereo not drawn) [MMV688980], the EC50 (P. falciparum ABS; [6]) is given as 760 nM and the IC50 (P. falciparum ABS; [4]) is given as 1970 nM.
